This test has as its system Plasmodium berghei. Put plainly: Luciferase/luciferin-expressing antifolate-resistant parasites were used to infect a culture of HepG2 cells that were pre-incubated with compounds. Infected hepatocytes emit light due to the luciferase reaction. Assay results are presented as the percent inhibition of light emission compared to control. […]. Type of test: functional. The settings on record: sporozoite; for IC90: read-out: LUCIFERASE INFECTION ASSAY - IC90.

Setting [1] is: read-out: LUCIFERASE INFECTION ASSAY - IC50.

The structures appear in SMILES notation.

As for `COc1ccc(-c2cnc3cnc(-c4cnn(Cc5ccccc5)c4)cn23)cc1`, the concentration for an effect of 90% (IC90) was more than 8.65 µM. Besides, under “PBLUC_HILL_SLOPE 2.08, PBLUC_R_SQUARED 0.432, read-out: LUCIFERASE INFECTION ASSAY - IC50”, the IC50 is 7.68 µM.

For `O=C(N/N=C/c1cc(Cl)cc(Cl)c1O)N/N=C/c1cc(Cl)cc(Cl)c1O`, the concentration for an effect of 90% (IC90) is more than 7.57 µM. In addition, under setting [1], the IC50 is more than 7.57 µM.

As for `N#Cc1cc(Br)c(OCc2c(F)cccc2Cl)c(Br)c1`, the 90% effect concentration (IC90) came to 6.23 µM. The IC50 (HEPG2TOX_HILL_SLOPE 16.7, HEPG2TOX_R_SQUARED 0.384, PBLUC_HILL_SLOPE 6.36, PBLUC_R_SQUARED 0.0513, read-out: LUCIFERASE INFECTION ASSAY - IC50) came to 4.41 µM.

`COc1cc(-c2nc3ccc(NC(=O)Nc4ccc(OC(F)(F)F)cc4)cn3n2)cc(OC)c1OC`: the 90% effect concentration (IC90) is 4.73 µM. Further, the IC50 (HEPG2TOX_HILL_SLOPE 11.1, HEPG2TOX_R_SQUARED 0.679, PBLUC_HILL_SLOPE 2.84, PBLUC_R_SQUARED 0.644, read-out: LUCIFERASE INFECTION ASSAY - IC50) amounted to 2.18 µM.

Turning to `O=C(Nc1nc2ccccn2c1C(=O)NC1CCCCC1)c1ccccc1Cl`, the 90% effect concentration (IC90) was 8.12 µM. Moreover, under “FFLUC_HILL_SLOPE 10.6, FFLUC_R_SQUARED 0.389, HEPG2TOX_HILL_SLOPE 7.19, HEPG2TOX_R_SQUARED 0.725, PBLUC_HILL_SLOPE 14.8, PBLUC_R_SQUARED 0.156, read-out: LUCIFERASE INFECTION ASSAY - IC50”, the half-maximal inhibitory concentration (IC50) was 7 µM.

For the molecule `CN(C)CCNCCCOc1ccc(C(C)(C)c2ccccc2)cc1`, the IC90 was more than 10 µM. Moreover, the concentration for half-maximal inhibition (IC50) (FFLUC_HILL_SLOPE 2.11, FFLUC_R_SQUARED 0.273, PBLUC_HILL_SLOPE 1.18, PBLUC_R_SQUARED 0.227, read-out: LUCIFERASE INFECTION ASSAY - IC50) stood at 5.92 µM.

As for `Cc1cc(C(=O)NC(C)Cc2ccc(Br)cc2)on1` (stereo unspecified), the IC90 was more than 10 µM. For the same molecule, under setting [1], the half-inhibitory concentration (IC50) is more than 10 µM.

On to `N#Cc1ccc(F)c(CN2CCN(Cc3nc(-c4ccc(Cl)cc4)no3)CC2)c1`, for which the 90% effect concentration (IC90) was more than 10 µM. For the same molecule, under setting [1], the IC50 was more than 10 µM.

In the case of `CCCNC(=O)c1c(NC(=O)c2ccc(C)cc2)nc2ccccn12`, the IC90 was 9.6 µM. In addition, where the note is “PBLUC_HILL_SLOPE 5.82, PBLUC_R_SQUARED 0.26, read-out: LUCIFERASE INFECTION ASSAY - IC50”, the IC50 was 6.58 µM.

Regarding `CCOc1cc(C(=O)N/N=C2/C(=O)N(C(C)C)c3ccccc32)cc(OCC)c1OCC`, the IC90 is more than 10 µM. Also, the concentration for half-maximal inhibition (IC50) under setting [1] was more than 10 µM.

For the molecule `COc1ccc2ccccc2c1/C=N/n1c(-c2ccc(Br)s2)cs/c1=N\c1ccc(Cl)cc1`, the IC90 is more than 10 µM. Also, the half-inhibitory concentration (IC50) (PBLUC_HILL_SLOPE 0.354, PBLUC_R_SQUARED 0.256, read-out: LUCIFERASE INFECTION ASSAY - IC50) is more than 10 µM.

Take `CCNC(=O)NC(=O)CNC(c1ccc(CC)cc1)c1cccc(F)c1` (stereo unspecified): the IC90 was more than 10 µM. In addition, the half-inhibitory concentration (IC50) (HEPG2TOX_HILL_SLOPE 2.54, HEPG2TOX_R_SQUARED 0.274, read-out: LUCIFERASE INFECTION ASSAY - IC50) is more than 10 µM.

For `Nc1ncnc(Sc2nnnn2-c2ccccc2)c1[N+](=O)[O-]`, the IC90 was more than 10 µM. Besides, the half-inhibitory concentration (IC50) (HEPG2TOX_HILL_SLOPE 9.17, HEPG2TOX_R_SQUARED 0.951, read-out: LUCIFERASE INFECTION ASSAY - IC50) is more than 10 µM.

For `Cc1cc(C)n(-c2nc(C)c(Br)c(NC(C)c3ccccc3)n2)n1` (stereo unspecified), the IC90 is more than 8.54 µM. For the same molecule, the IC50 (PBLUC_HILL_SLOPE 5.33, PBLUC_R_SQUARED 0.256, read-out: LUCIFERASE INFECTION ASSAY - IC50) turned out to be 5.95 µM.

As for `CCOC(=O)c1c(C)[nH]c(C(=O)CSc2nccn2C)c1C`, the IC90 amounted to 0.204 µM. Further, the IC50 (FFLUC_HILL_SLOPE 13.6, FFLUC_R_SQUARED 0.648, PBLUC_HILL_SLOPE 159, PBLUC_R_SQUARED 0.464, read-out: LUCIFERASE INFECTION ASSAY - IC50) stood at 0.201 µM.

Take `Cc1nn(C)c2sc(C(=O)N(C)c3nc4ccccc4s3)cc12`: the IC90 was more than 10 µM. Moreover, under setting [1], the IC50 was more than 10 µM.

On to `N#CC(Nc1cc(C(F)(F)F)cc(C(F)(F)F)c1)c1ccccc1` (stereo unspecified), for which the IC90 was more than 9.59 µM. Besides, under setting [1], the half-inhibitory concentration (IC50) is 7.17 µM.

On to `COC(=O)c1c(OC)ccc(NC(=O)NC(=O)c2c(OC)c(Cl)cc(Cl)c2OC)c1OC`, for which the concentration for an effect of 90% (IC90) was 2.63 µM. Moreover, the concentration for half-maximal inhibition (IC50) (HEPG2TOX_HILL_SLOPE 2.83, HEPG2TOX_R_SQUARED 0.683, PBLUC_HILL_SLOPE 11.5, PBLUC_R_SQUARED 0.299, read-out: LUCIFERASE INFECTION ASSAY - IC50) is 2.18 µM.

On to `CN(C)c1ccc(C(=O)/C=C/c2ccccc2C(F)(F)F)cc1`, for which the IC90 turned out to be 3.94 µM. The half-maximal inhibitory concentration (IC50) (HEPG2TOX_HILL_SLOPE 2.82, HEPG2TOX_R_SQUARED 0.851, PBLUC_HILL_SLOPE 15.9, PBLUC_R_SQUARED 0.328, read-out: LUCIFERASE INFECTION ASSAY - IC50) came out at 3.43 µM.

As for `COc1ccc(NC(=O)c2ccc(C)c(F)c2)cc1OCc1cccnc1`, the IC90 was more than 10 µM. Further, the IC50 under setting [1] came to 6.13 µM.

With `Cc1nc(SCC(=O)c2ccc(N3CCCC3=O)cc2)c2c(C)c(C)sc2n1`, the IC90 is more than 10 µM. Moreover, the IC50 under setting [1] stood at 7.98 µM.

In the case of `OCc1cccc(-c2cnc3ccc(-c4cccc(Oc5ccccc5)c4)nn23)c1`, the IC90 stood at 4.64 µM. For the same molecule, the IC50 (HEPG2TOX_HILL_SLOPE 3.57, HEPG2TOX_R_SQUARED 0.188, PBLUC_HILL_SLOPE 2.99, PBLUC_R_SQUARED 0.337, read-out: LUCIFERASE INFECTION ASSAY - IC50) is 2.23 µM.

With `CC(OC(=O)c1ccc(=O)n(Cc2ccccc2)n1)C(=O)N1CCCc2ccccc21` (stereo unspecified), the IC90 was more than 10 µM. For the same molecule, the half-maximal inhibitory concentration (IC50) under setting [1] is more than 10 µM.

As for `CC(C)c1ccc(-n2c(SCc3c(F)cccc3Cl)nnc2-c2ccc(C(C)(C)C)cc2)cc1`, the IC90 came out at 5.28 µM. The IC50 (HEPG2TOX_HILL_SLOPE 7.75, HEPG2TOX_R_SQUARED 0.388, PBLUC_HILL_SLOPE 5.31, PBLUC_R_SQUARED 0.644, read-out: LUCIFERASE INFECTION ASSAY - IC50) was determined as 3.49 µM.

As for `O=C1NC(=O)/C(=C/c2cccc(C#Cc3ccccc3)c2)S1`, the IC90 is more than 10.8 µM. Moreover, the IC50 (PBLUC_HILL_SLOPE 1.96, PBLUC_R_SQUARED 0.068, read-out: LUCIFERASE INFECTION ASSAY - IC50) was found to be 6.6 µM.

For the molecule `NNC(=O)c1cc2ccc3ccccc3c2s1`, the IC90 was more than 13.6 µM. Besides, the concentration for half-maximal inhibition (IC50) under setting [1] is more than 13.6 µM.

On to `Cn1c(N)c(C(=O)COC(=O)c2c3c(nc4ccccc24)/C(=C/c2ccc(O)cc2)CCC3)c(=O)n(C)c1=O`, for which the IC90 was 6.45 µM. Under setting [1], the half-inhibitory concentration (IC50) came to 2.66 µM.

On to `O=c1c(-c2ccc([N+](=O)[O-])cc2)c(-c2ccc(Cl)cc2)cc2[nH]c3ccccc3n12`, for which the 90% effect concentration (IC90) is more than 10 µM. For the same molecule, the IC50 under setting [1] was more than 10 µM.

As usually defined, the IC50 is the concentration at which inhibition is half-maximal. One may read the IC90 as the concentration needed for an effect of 90%.
